What was measured:
Assay type in all cases: in vivo
[1] = system: Surinam grass (Brachiaria decumbens); test: Test B pre/postemergence
Outline: (§1)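 Under greenhouse conditions, seeded pots and young plants (1- to 4-leaf, 2 to 18 cm) were treated at the same time with test chemicals in a non-phytotoxic solvent mixture containing surfactant. Response was assessed visually after 13 to 15 days, from 0 (no effect) to 100 (complete control).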

[2] = system: barnyardgrass (Echinochloa crus-galli); test: Test B pre/postemergence
Outline: as §1

[3] = system: cocklebur (Xanthium strumarium); test: Test B pre/postemergence
Outline: as §1

corn (Zea mays) = test: Test B pre/postemergence
Outline: as §1

[4] = system: crabgrass (Digitaria sanguinalis); test: Test B pre/postemergence
Outline: as §1

[5] = system: giant foxtail (Setaria faberii); test: Test B pre/postemergence
Outline: as §1

[6] = system: lambsquarters (Chenopodium album); test: Test B pre/postemergence
Outline: as §1

[7] = system: morningglory (Ipomoea coccinea); test: Test B pre/postemergence
Outline: as §1

[8] = system: pigweed (Amaranthus retroflexus); test: Test B pre/postemergence
Outline: as §1

[9] = system: velvetleaf (Abutilon theophrasti); test: Test B pre/postemergence
Outline: as §1

[10] = system: wheat (Triticum aestivum); test: Test B pre/postemergence
Outline: as §1

[11] = system: blackgrass (Alopecurus myosuroides); test: Test B postemergence; details: for Blackgrass plant response rating: scale 0 to 100 (0 no effect, 100 complete control)
Outline: as §1

wild oat (Avena fatua) = test: Test B postemergence; details: for Oat, Wild plant response rating: scale 0 to 100 (0 no effect, 100 complete control)
Outline: as §1

[12] = system: barnyardgrass (Echinochloa crus-galli); test: Test B flooded paddy test; details: Flood
Outline: (§2)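 Visual injury scoring (0 = no effect, 100 = complete control) versus controls made 13 to 15 days after treatment in the greenhouse. Test species were grown in flooded paddy to the 2-leaf stage: rice, barnyardgrass, umbrella sedge, duck salad.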

[13] = system: duck salad (Heteranthera limosa); test: Test B flooded paddy test; details: Flood, scale 0 to 100
Outline: as §2

rice (Oryza sativa) = test: Test B flooded paddy test; details: Flood, scale 0 to 100
Outline: as §2

[14] = system: umbrella sedge (Cyperus difformis); test: Test B flooded paddy test; details: Flood, scale 0 to 100
Outline: as §2

[15] = Postemergence, 125 g ai/ha, scale 0 to 100 (0 no effect, 100 complete control)
[16] = Postemergence, 500 g ai/ha, scale 0 to 100
[17] = Preemergence, 125 g ai/ha, scale 0 to 100 (0 no effect, 100 complete control)
[18] = Preemergence, 500 g ai/ha, scale 0 to 100 (0 no effect, 100 complete control)
[19] = Postemergence, 62 g ai/ha, scale 0 to 100 (0 no effect, 100 complete control)
[20] = Preemergence, 62 g ai/ha, scale 0 to 100, 0 no effect, 100 complete control

Nc1nc(C2CC2)nc(C=NO)c1Br [Compound 27]
60: Barnyardgrass plant response rating [2, 18] | Pigweed plant response rating [8, 15] | Velvetleaf plant response rating [9, 15] | Plant response rating, Ducksalad ([13]; 1000 g ai/ha) | Plant response rating, Sedge, Umbrella ([14]; 1000 g ai/ha)
80: Plant response rating, Cocklebur [3, 17] | Lambsquarters plant response rating [6, 15] | Plant response rating, Morningglory [7, 17] | Plant response rating, Velvetleaf [9, 17]
40: Foxtail, Giant plant response rating [5, 18]
100: Cocklebur plant response rating [3, 15] | Plant response rating, Cocklebur [3, 16] | Lambsquarters plant response rating [6, 18] | Pigweed plant response rating [8, 18]
20: Plant response rating, Corn (corn (Zea mays); [16]) | Foxtail, Giant plant response rating [5, 15] | Wheat plant response rating [10, 15] | Oat, Wild plant response rating (wild oat (Avena fatua); 125 g ai/ha) | Plant response rating, Rice (rice (Oryza sativa); 1000 g ai/ha)
0: Surinam Grass plant response rating [1, 15] | Plant response rating, Surinam Grass [1, 16] | Plant response rating, Surinam Grass [1, 17] | Barnyardgrass plant response rating [2, 15] | Plant response rating, Barnyardgrass [2, 16] | Corn plant response rating (corn (Zea mays); [15]) | Plant response rating, Foxtail, Giant [5, 17] | Plant response rating, Barnyardgrass ([12]; 1000 g ai/ha, scale 0 (no effect) to 100 (complete control))
30: Plant response rating, Barnyardgrass [2, 17] | Plant response rating, Crabgrass [4, 17] | Plant response rating, Foxtail, Giant [5, 16] | Plant response rating, Wheat [10, 16] | Blackgrass plant response rating ([11]; 125 g ai/ha) | Plant response rating, Blackgrass ([11]; 500 g ai/ha, scale 0 to 100) | Plant response rating, Oat, Wild (wild oat (Avena fatua); 500 g ai/ha, scale 0 to 100)
10: Plant response rating, Corn (corn (Zea mays); [17]) | Crabgrass plant response rating [4, 15] | Plant response rating, Crabgrass [4, 16] | Plant response rating, Wheat [10, 17]
70: Surinam Grass plant response rating [1, 18] | Crabgrass plant response rating [4, 18] | Morningglory plant response rating [7, 15] | Plant response rating, Pigweed [8, 16] | Plant response rating, Velvetleaf [9, 16]
50: Corn plant response rating (corn (Zea mays); [18]) | Wheat plant response rating [10, 18]
90: Cocklebur plant response rating [3, 18] | Plant response rating, Lambsquarters [6, 16] | Plant response rating, Lambsquarters [6, 17] | Plant response rating, Morningglory [7, 16] | Morningglory plant response rating [7, 18] | Plant response rating, Pigweed [8, 17] | Velvetleaf plant response rating [9, 18]

Nc1nc(-c2ccc(Cl)cc2)nc(C(=O)O)c1Br [Compound 88]
60: Plant response rating, Cocklebur [3, 20] | Foxtail, Giant plant response rating [5, 19] | Morningglory plant response rating [7, 19] | Wheat plant response rating [10, 15] | Blackgrass plant response rating ([11]; 125 g ai/ha) | Plant response rating, Sedge, Umbrella ([14]; 125 g ai/ha)
70: Corn plant response rating (corn (Zea mays); [19]) | Crabgrass plant response rating [4, 19] | Plant response rating, Crabgrass [4, 17] | Foxtail, Giant plant response rating [5, 15] | Plant response rating, Velvetleaf [9, 20] | Plant response rating, Wheat [10, 17]
80: Surinam Grass plant response rating [1, 19] | Surinam Grass plant response rating [1, 15] | Corn plant response rating (corn (Zea mays); [15]) | Crabgrass plant response rating [4, 15]
10: Plant response rating, Corn (corn (Zea mays); [17]) | Plant response rating, Foxtail, Giant [5, 20] | Plant response rating, Morningglory [7, 17]
100: Cocklebur plant response rating [3, 19] | Cocklebur plant response rating [3, 15] | Lambsquarters plant response rating [6, 19] | Lambsquarters plant response rating [6, 15] | Pigweed plant response rating [8, 19] | Pigweed plant response rating [8, 15] | Velvetleaf plant response rating [9, 15]
90: Barnyardgrass plant response rating [2, 19] | Barnyardgrass plant response rating [2, 15] | Plant response rating, Cocklebur [3, 17] | Morningglory plant response rating [7, 15] | Velvetleaf plant response rating [9, 19] | Plant response rating, Velvetleaf [9, 17] | Plant response rating, Ducksalad ([13]; 125 g ai/ha) | Plant response rating, Ducksalad ([13]; 500 g ai/ha) | Plant response rating, Sedge, Umbrella ([14]; 500 g ai/ha)
40: Blackgrass plant response rating ([11]; 62 g ai/ha) | Oat, Wild plant response rating (wild oat (Avena fatua); 62 g ai/ha)
50: Plant response rating, Surinam Grass [1, 17] | Plant response rating, Crabgrass [4, 20] | Wheat plant response rating [10, 19] | Plant response rating, Wheat [10, 20] | Oat, Wild plant response rating (wild oat (Avena fatua); 125 g ai/ha)
30: Plant response rating, Foxtail, Giant [5, 17]
20: Plant response rating, Surinam Grass [1, 20]
0: Plant response rating, Corn (corn (Zea mays); [20]) | Plant response rating, Morningglory [7, 20] | Plant response rating, Barnyardgrass ([12]; 125 g ai/ha, scale 0 to 100) | Plant response rating, Barnyardgrass ([12]; 500 g ai/ha, scale 0 to 100) | Plant response rating, Rice (rice (Oryza sativa); 125 g ai/ha) | Plant response rating, Rice (rice (Oryza sativa); 500 g ai/ha)

Source: US8802597B2, “Herbicidal pyrimidines” (E I du Pont de Nemours and Company, priority 2003, dated 2014)
